Source: US20230136562A1, “SPIROUREA DERIVATIVES” (Idorsia Pharmaceuticals Ltd, priority 2020, published 2023)
pEC50: −log10 of the molar value. Where two headings read alike, the source gives them in different places.

Assays:
[1] = tested on: primary neuronal cultures from embryonic rat brains; test: Rat oscillation assay (FLIPR, neuronal calcium oscillations); format: cell-based
Method in brief: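 Cortical neurons from E18 Wistar rat embryos, cultured 8–10 days at high density, loaded with 1 μM Fluo-8 AM; calcium oscillations recorded by FLIPR once per second in Mg-free HBSS with 2 mM CaCl2, 20 mM HEPES, pH 7.4. Two acquisitions ("Acute", 500 sec, compound added at 250 sec; "20 min"), ± Kv7 blocker XE-991.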

[2] = target: T1, Kv7.2/7.3 (Homo sapiens, UniProt O43525+O43526); test: Kv7.2/3 assay (FLIPR potassium assay, agonist mode); format: cell-based; settings: Kv7.2/7.3 activation; HEK293 cells, human KCNQ2 and KCNQ3
T1 construct: expressed in transfected cells; host or cells: HEK293
Procedure: HEK293 cells were stably transfected with the appropriate ion channel cDNA(s) (human KCNQ2 and KCNQ3 genes). Cells were cultured in Dulbecco's Modified Eagle Medium/Nutrient mixture F-12 (D-MEM/F-12) supplemented with 10% fetal bovine serum, 100 U/mL penicillin G sodium, 100 µg/mL streptomycin sulfate and selection antibiotics. FLIPR Test Procedure: For FLIPR assay, cells were plated in 384-well black clear-bottomed microtiter plates (BD Biocoat Poly-D-Lysine Multiwell Cell Culture Plate) at 15'000 to 30'000 cells per well. Cells were incubated at 37° C. overnight or until cells reached sufficient density in the wells (near confluent monolayer) to use in fluorescence assays. […] Assays were performed with the FLIPR potassium assay kit (Molecular Devices) according to the manufacturer's instructions. Dye-loading: Growth media was removed and replaced with 20 μL of dye loading buffer for 60 min at room temperature. FLIPR Recording (agonist mode): Stock solutions of test compounds were prepared at a concentration of 33.3 mM in DMSO. 5 μL of 5× concentrated test, vehicle, or control compounds solutions prepared in the stimulation buffer (K^+-free buffer with 5 mM TI^+) were added to each well and fluorescence recording was continued for 5 min. The agonist effect (EC50 and % effect) of test or control compounds on Kv7 channels was determined as follows: Raw data was exported using Screenworks® 4.2 software and the fluorescence traces were analysed using Microsoft Excel (Microsoft Corp., Redmond, Wash.). The test compounds responses were expressed as % of maximum response of the control compound Flupirtine (Sigma-Aldrich), which was tested at concentrations ranging from 0.03 to 100 μM. Concentration-response data were fitted to a Hill equation. Non-linear least squares fits were made assuming a simple binding model. If appropriate, fits were weighted by the standard deviation. No assumptions about the fit parameters were made; the fit parameters were determined by the algorithm.

[3] = Rattus norvegicus, 20 min, AUC of fluorescence measured 20 min after compound addition, read-out: FLIPR: IC50 [nM] 20 min
[4] = Rattus norvegicus, Acute phase, ratio of AUC fluorescence before and after compound addition, read-out: FLIPR: IC50 [nM] acute
[5] = AUC of fluorescence measured 20 min after compound addition, read-out: FLIPR: IC50 [nM] 20 min
[6] = Acute phase, ratio of AUC fluorescence before and after compound addition, read-out: FLIPR: IC50 [nM] acute

Structure (SMILES): O=C(NCc1ccnc(OCC(F)(F)F)c1)NC1CC2(CCC2)C1 [Example 103, 1-Spiro[3.3]hept-2-yl-3-[2-(2,2,2-trifluoro-ethoxy)-pyridin-4-ylmethyl]-urea]
- IC50 [1, 3]: 7.4 nM
- IC50 [1, 4]: 4.8 nM
- pEC50 [2]: 8.82

Structure (SMILES): C[C@H](NC(=O)NC1CC2(CCC2)C1)c1cccc(C(F)(F)F)c1 (single isomer, unassigned) [Example 175]
- IC50 [1, 3]: 5.5 nM
- IC50 [1, 4]: 9 nM
- pEC50 [2]: 7.52

Structure (SMILES): Cc1nc(CNC(=O)NC2CC3(CCC3)C2)cc(OCC(F)(F)F)n1 [Example 60, 1-[2-Methyl-6-(2,2,2-trifluoro-ethoxy)-pyrimidin-4-ylmethyl]-3-spiro[3.3]hept-2-yl-urea]
- IC50 [1, 3]: 144 nM
- IC50 [1, 4]: 109 nM
- pEC50 [2]: 7.38

Structure (SMILES): O=C(NCc1cccc(C2(C(F)(F)F)CC2)c1)NC1CC2(CCC2)C1 [Example 37, 1-Spiro[3.3]hept-2-yl-3-[3-(1-trifluoromethyl-cyclopropyl)-benzyl]-urea]
- IC50 [1, 3]: 8.1 nM
- IC50 [1, 4]: 10 nM
- pEC50 [2]: 8.82

Structure (SMILES): O=C(NCc1cccc(C(F)(F)F)c1)NC1CC2(CCC2)C1 [Example 1, 1-Spiro[3.3]hept-2-yl-3-(3-trifluoromethyl-benzyl)-urea]
- IC50 [1, 3]: 20 nM
- IC50 [1, 4]: 27 nM
- pEC50 [2]: 7.52

Structure (SMILES): O=C(NCc1ccnc(NCC(F)(F)F)c1)NC1CC2(CCC2)C1 [Example 116, 1-Spiro[3.3]hept-2-yl-3-[2-(2,2,2-trifluoro-ethylamino)-pyridin-4-ylmethyl]-urea]
- IC50 [1, 3]: 609 nM
- IC50 [1, 4]: 530 nM
- pEC50 [2]: 6.79

Structure (SMILES): C[C@H](NC(=O)NC1CC2(CCC2)C1)c1ccc(F)c(OCC(F)(F)F)c1 (single isomer, unassigned) [Example 177]
- IC50 [1, 3]: 24 nM
- IC50 [1, 4]: 22 nM
- pEC50 [2]: 8.15

Structure (SMILES): CC(Oc1cccc(C2(NC(=O)NC3CC4(CCC4)C3)CC2)c1)C(F)(F)F (single isomer, unassigned) [Example 170, 1-Spiro[3.3]hept-2-yl-3-{1-[3-(2,2,2-trifluoro-1-methyl-ethoxy)-phenyl]-cyclopropyl}-urea]
- IC50 [1, 5]: 59 nM
- IC50 [1, 6]: 76 nM

Structure (SMILES): CC(Oc1ccnc(CNC(=O)NC2CC3(CCC3)C2)c1)C(F)(F)F (racemic) [Example 117, (±)-1-Spiro[3.3]hept-2-yl-3-[4-(2,2,2-trifluoro-1-methyl-ethoxy)-pyridin-2-ylmethyl]-urea]
- IC50 [1, 3]: 286 nM
- IC50 [1, 4]: 195 nM

Structure (SMILES): O=C(NC1CC2(CC2)C1)NC(CO)c1cccc(C(F)(F)F)c1 (racemic) [Example 143, (±)-1-[2-Hydroxy-1-(3-trifluoromethyl-phenyl)-ethyl]-3-spiro[2.3]hex-5-yl-urea]
- IC50 [1, 3]: 61 nM
- IC50 [1, 4]: 42 nM

Structure (SMILES): C[C@@H](NC(=O)NC1CC2(CCC2)C1)c1cccc(OC(F)F)c1 (single isomer, unassigned) [Example 174]
- IC50 [1, 3]: 2490 nM
- IC50 [1, 4]: 2870 nM

Structure (SMILES): COCCOCC(NC(=O)NC1CC2(CCC2)C1)c1cccc(C(F)(F)F)c1 (racemic) [Example 71, (±)-1-[2-(2-Methoxy-ethoxy)-1-(3-trifluoromethyl-phenyl)-ethyl]-3-spiro[3.3]hept-2-yl-urea]
- IC50 [1, 3]: 105 nM
- IC50 [1, 4]: 92 nM

Structure (SMILES): CC(NC(=O)NC1CC2(CCC2)C1)c1cccc(C(F)(F)F)c1 (racemic) [Example 23, (±)-1-Spiro[3.3]hept-2-yl-3-[1-(3-trifluoromethyl-phenyl)-ethyl]-urea]
- IC50 [1, 3]: 4.6 nM
- IC50 [1, 4]: 13 nM

Structure (SMILES): O=C(NCc1cccc(C(F)(F)F)c1)NC1CC2(C1)CC2(F)F (single isomer, unassigned) [Example 5, 1-(1,1-Difluoro-spiro[2.3]hex-5-yl)-3-(3-trifluoromethyl-benzyl)-urea]
- IC50 [1, 6]: 82 nM
- IC50 [1, 3]: 156 nM

Structure (SMILES): O=C(NC1CC2(CCC2)C1)N[C@H](c1cccc(C(F)(F)F)c1)c1nc[nH]n1 (single isomer, unassigned) [Example 179]
- IC50 [1, 3]: 13 nM
- IC50 [1, 4]: 24 nM

Structure (SMILES): CC(NC(=O)NC1CC2(CCC2)C1)c1cc(C(F)(F)F)ccc1Br (racemic) [Example 19, (±)-1-[1-(2-Bromo-5-trifluoromethyl-phenyl)-ethyl]-3-spiro[3.3]hept-2-yl-urea]
- IC50 [1, 3]: 274 nM
- IC50 [1, 4]: 337 nM

Structure (SMILES): CN(C)CC(NC(=O)NC1CC2(CCC2)C1)c1cccc(OCC(F)(F)F)n1 (racemic) [Example 48, (±)-1-{2-Dimethylamino-1-[6-(2,2,2-trifluoro-ethoxy)-pyridin-2-yl]-ethyl}-3-spiro[3.3]hept-2-yl-urea]
- IC50 [1, 3]: 138 nM
- IC50 [1, 4]: 510 nM

Structure (SMILES): CC(Oc1cccc(C2(NC(=O)NC3CC4(CCC4)C3)CC2)c1)C(F)(F)F (racemic) [Example 111, (±)-1-Spiro[3.3]hept-2-yl-3-{1-[3-(2,2,2-trifluoro-1-methyl-ethoxy)-phenyl]-cyclopropyl}-urea]
- IC50 [1, 3]: 34 nM
- IC50 [1, 4]: 26 nM

Structure (SMILES): O=C(NC1CC2(CCC2)C1)NC(c1cccc(C(F)(F)F)c1)c1nc[nH]n1 (stereo not shown) [Example 56, 1-Spiro[3.3]hept-2-yl-3-[(1H-[1,2,4]triazol-3-yl)-(3-trifluoromethyl-phenyl)-methyl]-urea]
- IC50 [1, 3]: 9.7 nM
- IC50 [1, 4]: 27 nM

Structure (SMILES): COc1c(C(C)NC(=O)NC2CC3(CCC3)C2)cccc1C(F)(F)F (racemic) [Example 21, (±)-1-[1-(2-Methoxy-3-trifluoromethyl-phenyl)-ethyl]-3-spiro[3.3]hept-2-yl-urea]
- IC50 [1, 3]: 72 nM
- IC50 [1, 4]: 112 nM

Structure (SMILES): O=C(NC1CC2(CCC2)C1)NC(CCO)c1cccc(OCC(F)(F)F)c1 (racemic) [Example 88, (±)-1-{3-Hydroxy-1-[3-(2,2,2-trifluoro-ethoxy)-phenyl]-propyl}-3-spiro[3.3]hept-2-yl-urea]
- IC50 [1, 3]: 28 nM
- IC50 [1, 4]: 45 nM

Structure (SMILES): O=C(NC1CC2(CCC2)C1)NC1(c2ccnc(OC(F)F)c2)CCC1 [Example 51, 1-[1-(2-Difluoromethoxy-pyridin-4-yl)-cyclobutyl]-3-spiro[3.3]hept-2-yl-urea]
- IC50 [1, 3]: 65 nM
- IC50 [1, 4]: 80 nM

Structure (SMILES): O=C(NC1CC2(CC2)C1)NC(CO)c1cc(OCC(F)(F)F)ncn1 (racemic) [Example 122, (±)-1-{2-Hydroxy-1-[6-(2,2,2-trifluoro-ethoxy)-pyrimidin-4-yl]-ethyl}-3-spiro[2.3]hex-5-yl-urea]
- IC50 [1, 3]: 658 nM
- IC50 [1, 4]: 339 nM

Structure (SMILES): CC(Oc1nccc(CNC(=O)NC2CC3(CCC3)C2)n1)C(F)(F)F (single isomer, unassigned) [Example 181, 1-Spiro[3.3]hept-2-yl-3-[2-(2,2,2-trifluoro-1-methyl-ethoxy)-pyrimidin-4-ylmethyl]-urea]
- IC50 [1, 5]: 564 nM
- IC50 [1, 6]: 404 nM

Structure (SMILES): Cc1nc(OCC(F)(F)F)cc(C(CO)NC(=O)NC2CC3(CCC3)C2)n1 (racemic) [Example 82, (±)-1-{2-Hydroxy-1-[2-methyl-6-(2,2,2-trifluoro-ethoxy)-pyrimidin-4-yl]-ethyl}-3-spiro[3.3]hept-2-yl-urea]
- IC50 [1, 3]: 59 nM
- IC50 [1, 4]: 66 nM

Structure (SMILES): COc1c(CNC(=O)NC2CC3(CC3)C2)cccc1C(F)(F)F [Example 128, 1-(2-Methoxy-3-trifluoromethyl-benzyl)-3-spiro[2.3]hex-5-yl-urea]
- IC50 [1, 3]: 950 nM
- IC50 [1, 4]: 981 nM

Structure (SMILES): CC(C)(NC(=O)NC1CC2(CCC2)C1)c1ccnc(OC(F)F)c1 [Example 52, 1-[1-(2-Difluoromethoxy-pyridin-4-yl)-1-methyl-ethyl]-3-spiro[3.3]hept-2-yl-urea]
- IC50 [1, 3]: 143 nM
- IC50 [1, 4]: 72 nM

Structure (SMILES): CC(NC(=O)NC1CC2(CCC2)C1)c1cccc(OCC(F)(F)F)c1F (racemic) [Example 98, (±)-1-{1-[2-Fluoro-3-(2,2,2-trifluoro-ethoxy)-phenyl]-ethyl}-3-spiro[3.3]hept-2-yl-urea]
- IC50 [1, 3]: 14 nM
- IC50 [1, 4]: 11 nM

Structure (SMILES): O=C(NCc1cccc(C(F)(F)F)c1)NC1CC2(C1)CC(F)(F)C2 [Example 6, 1-(6,6-Difluoro-spiro[3.3]hept-2-yl)-3-(3-trifluoromethyl-benzyl)-urea]
- IC50 [1, 3]: 112 nM
- IC50 [1, 4]: 62 nM

Structure (SMILES): CS(=O)(=O)CCC(NC(=O)NC1CC2(CCC2)C1)c1cccc(C(F)(F)F)c1 (racemic) [Example 81, (±)-1-[3-Methanesulfonyl-1-(3-trifluoromethyl-phenyl)-propyl]-3-spiro[3.3]hept-2-yl-urea]
- IC50 [1, 3]: 941 nM
- IC50 [1, 4]: 2180 nM
